Consider 2 compounds from patent US11846640B2, “Identification of anticoagulants in a sample” (DSM IP Assets B.V., priority 2013, dated 2023).

Holding throughout (assay type): biochemical, human
Assay [1] has as its system normal plasma pool (NPP). The experiment in a line: PiCT Method 4 (inverted PiCT) clotting time on ACL TOP 500. To be noted: for Clotting time: Table 10B, PiCT Method 4, NPP spiked, mean n = 4; for PiCT ® method 4 clotting time: Table 11. The method, then:
The present invention is in one aspect directed to the use of a clotting assay, in particular the PiCT® testing method on a detection system such as e.g. the ACL TOP® 500 analyzer and to a method to quantitatively and qualitatively detect anticoagulants in a sample, e.g. blood or plasma. […] PiCT® Method 4 or PiCT® inverted includes that first the start reagent is added to the sample, the mixture allowed to proceed according to the manufacturer's instructions followed by addition of the activator, i.e. a reversed order compared to standard PiCT® (see above). PiCT® Method 1 to 4 is described in more detail in the Examples.
(§1) The 4 methods (see above) are in more detail described in the Examples. Specific pipetting schemes were designed using NPP spiked with incremental amounts of anticoagulants in order to achieve high reproducibility of the test system, which is required for drug identification including use in a POC system. With regards to the ACL TOP® 500 analyzer, PiCT® Method 1 to 4 has been established as follows: • PiCT® Method 1: 50 μl of plasma is incubated for 180 sec with 50 μl of reagent 1 and afterwards 50 μl of reagent 2 is added and the time to clot is recorded on the ACL TOP® 500 (i.e. pipetting scheme: P-50/A-50/I-180/50-S).
After calculation of the RR for the different kind of anticoagulants (see Example 1) samples of NPP spiked with incremental amounts of anticoagulants were used in the ACL TOP® 500, wherein 45 μl start reagent was incubated with 140 μl plasma for 60 sec. The time to clot was recorded after addition of 40 μl of activator (i.e. so-called inverted PiCT®).

In assay [2] the test system is normal plasma pool (NPP). Kind of assay: PiCT Method 1 (standard Pefakit PiCT) clotting time on ACL TOP 500. To be noted: for Clotting time with PiCT ® Method 1: spiked plasma; for Clotting time: Table 7C, PiCT Method 1, NPP spiked, mean n = 4.
Description: As described by Korte et al. (supra) or in EP 1240528, Pefakit® PiCT® is a functional clotting assay based on the direct activation of the prothrombinase complex which results in a fine-tuned analytical output directly proportional to the final anticoagulant activity of the factor Xa or factor IIa inhibitors (see Calatzis, Haemostasis 2000, 30:172-174). To perform the Pefakit® PiCT® test (referred to herein as standard “PiCT® or PiCT® Method 1), a defined amount of PiCT® activator (=reagent 1) is added to a sample, such as, e.g., plasma. The mixture is allowed to proceed at 37° C. for a specific period of time. The Start reagent (=reagent 2) is then added to the mixture and the time required for clot formation is measured. The presence of anticoagulants in the samples dose-dependently prolongs the time to clot. Pefakit® PiCT® is adapted to laboratory instruments based on mechanical or optical detection systems, including but not limited to ACL TOP® family (Instrumentation Laboratory), preferably ACL TOP® 500, STA Compact® series (Stago) or the BCS® XP series (Siemens).
as §1, with “P-50/A-50/I-180/50-S). This method is in particularly useful for detection of UFH, LMWH or hirudin. • PiCT® Method 2: P-75/A-65/I-180/35-S on the ACL TOP® 500 or P-80/A-65/I-180/40-S on the STA Compact® or P-75/A-65/I-180/S-40 on the BCS® XP. This method is in particularly useful for fondaparinux. • PiCT® Method 3: P-90/A-70/I-180/40-S on the ACL TOP® 500 or STA Compact®, or P-70/A-60/I-180/45-S on the BCS® XP. This method is in particularly useful for dabigatran or argatroban. • PiCT® Method 4: P-140/S-45/I160/A-40 on the ACL TOP® 500 or STA Compact®, or P-125/S-45/I-150/A-40 on the BCS® XP. This method is in particularly useful for rivaroxaban or apixaban.” for “P-50/A-50/I-180/50-S).”
With the normal PiCT®, i.e. PiCT® Method 1, wherein 50 μl of plasma is mixed with the same amount of reagent 1 (PiCT® activator), incubated for 180 sec and mixed with the same amount of reagent 2 (PiCT® start reagent) in a ACL TOP® 500 analyzer, the presence of NOACs cannot be determined in a sample. This is true even at high levels of said drugs in the sample, i.e. in the range of 300 ng/ml. Thus, in order to determine which NOAC is present in the sample, a combination of PiCT® Method 1 and PiCT® method 4 has to be used (see above for detailed description). To confirm this, spiked plasma samples with different levels of NOACs were prepared and the clotting time measured using first PiCT® Method 1 followed by PiCT® Method 4. […] In case of dabigatran present in the sample, both PiCT® Method 1 (which had to be adapted, i.e. PiCT® Method 3) and 4 are out of range as indicated in bold.

The test system of assay [3] is plasma samples. The experiment in a line: PT (HemosIL PT recombiplastin) clotting time. The following applies: Table 6, spiked plasma, mean. On the procedure:
(§2) In order to address the above question, i.e. to determine the nature of an anticoagulant in a sample, a combination of several methods has to be performed, including PiCT® Method 1, PiCT® Method 4, aPTT (HemosIL™ aPTT SP), PT (HemosIL™ PT recombiplastin), and sometimes even a modified PiCT® Method 1 wherein polybrene has been added. In order to simulate this, plasma samples spiked with different levels of anticoagulants were analyzed using the ACL TOP® 500 analyzer.

The test system of assay [4] is plasma samples. Kind of assay: aPTT (HemosIL aPTT SP) clotting time. The following applies: Table 6, spiked plasma, mean. The method, then:
as §2, with “analyzer. For each drug, a specific pattern was obtained, i.e. clotting times within the RR and clotting times above the RR, depending on the used testing method, which is unique at least for the class of anticoagulant or even for a specific anticoagulant.” for “analyzer.”

Assay [5] has as its system plasma samples. The experiment in a line: PiCT Method 1 with polybrene added, clotting time. The following applies: Table 6, spiked plasma, mean.
Description: By the addition of polybrene a distinction can be done, which of the anticoagulants is really present in the sample: if after addition of polybrene the measured clotting times are again back to RR when using the PiCT® Method 1, the sample comprises heparins, such as e.g. UFH or LMWH. Alternatively, if the result is not going back to RR, the sample comprises low concentrations of dabigatran or hirudin. […] The particular clotting times measured for the different anticoagulants are shown in Table 6, which is an example of results obtained in spiked plasma samples.
as §2, with “analyzer. For each drug, a specific pattern was obtained, i.e. clotting times within the RR and clotting times above the RR, depending on the used testing method, which is unique at least for the class of anticoagulant or even for a specific anticoagulant.” for “analyzer.”

With `COc1ccc(-n2nc(C(N)=O)c3c2C(=O)N(c2ccc(N4CCCCC4=O)cc2)CC3)cc1` [apixaban], the “Clotting time with PiCT ® Method 4” value turned out to be 45 s in the assay on normal plasma pool (NPP) [1] (Table 4, NPP spiked with 20 ng per ml); 54 s in the assay on normal plasma pool (NPP) [1] (Table 4, NPP spiked with 35 ng per ml); 45 s in the assay with normal plasma pool (NPP) [1] (Table 5, spiked plasma, 20 ng per ml); 54 s in the assay on normal plasma pool (NPP) [1] (Table 5, spiked plasma, 35 ng per ml); 124.3 s in the assay on normal plasma pool (NPP) [1] (Table 5, spiked plasma, 300 ng per ml); 54.4 s in the assay with normal plasma pool (NPP) [1] (Table 6, spiked plasma, 50 ng, mean). In addition, the “Clotting time with PiCT ® Method 4” value with normal plasma pool (NPP) [1] (Table 6, spiked plasma, 200 ng, mean) was 151.0 s. Also, the Clotting time in the assay with normal plasma pool (NPP) [1] (5 ng/ml) was 65 s; in the assay on normal plasma pool (NPP) [1] (10 ng/ml), 74 s; in the assay with normal plasma pool (NPP) [1] (50 ng/ml), 109 s; in the assay on normal plasma pool (NPP) [1] (100 ng/ml), 136 s; in the assay with normal plasma pool (NPP) [1] (200 ng/ml), 167 s; in the assay with normal plasma pool (NPP) [1] (500 ng/ml), 233 s. Moreover, the “PiCT ® method 4 clotting time” value is on record as 45 sec (n = 3) in the assay with normal plasma pool (NPP) [1] (spiked plasma, 20 ng/mL (wash off level)) and 54 sec (n = 3) with normal plasma pool (NPP) [1] (spiked plasma, 35 ng/mL (wash off level)). The “Clotting time with PiCT ® Method 1” value with normal plasma pool (NPP) [2] (Table 5, 20 ng per ml (title: Method 3 for dabigatran)) came out at 18 s; in the assay on normal plasma pool (NPP) [2] (Table 5, 35 ng per ml (title: Method 3 for dabigatran)), 18 s; in the assay on normal plasma pool (NPP) [2] (Table 5, 300 ng per ml (title: Method 3 for dabigatran)) it was 24.9 s; with normal plasma pool (NPP) [2] (Table 6, 50 ng, mean), 18.9 s; in the assay with normal plasma pool (NPP) [2] (Table 6, 200 ng, mean) it was 22.3 s. Moreover, the “Clotting time with PT” value with plasma samples [3] (50 ng) came to 11.2 s. In addition, the figures for the “Clotting time with aPTT” value with plasma samples [4] (50 ng) and with plasma samples [4] (200 ng) were 31.0 s and 36.4 s, respectively.
With lepirudin [hirudin], the “Clotting time with PiCT ® Method 4” value with normal plasma pool (NPP) [1] (Table 4, NPP spiked with 0.4 μg per ml) was determined as 300 s; in the assay with normal plasma pool (NPP) [1] (Table 6, spiked plasma, 0.4 μg, mean) it was 300.0 s; in the assay with normal plasma pool (NPP) [1] (Table 6, spiked plasma, 2.5 μg, mean), 300.0 s. Further, the “Clotting time with PiCT ® Method 1 + polybrene” value with plasma samples [5] (0.4 μg) was 89.5 s; in the assay with plasma samples [5] (2.5 μg) it was 258.0 s. Also, the “Clotting time with PiCT ® Method 1” value is 88.9 s in the assay on normal plasma pool (NPP) [2] (Table 6, 0.4 μg, mean) and 264.5 s with normal plasma pool (NPP) [2] (Table 6, 2.5 μg, mean). Besides, the Clotting time was 41 s in the assay on normal plasma pool (NPP) [2] (0.2 μg/ml); 55 s with normal plasma pool (NPP) [2] (0.4 μg/ml); 69 s in the assay with normal plasma pool (NPP) [2] (0.6 μg/ml); 86 s with normal plasma pool (NPP) [2] (0.9 μg/ml); 113 s in the assay on normal plasma pool (NPP) [2] (1.3 μg/ml); 142 s with normal plasma pool (NPP) [2] (1.7 μg/ml). Also, the Clotting time in the assay on normal plasma pool (NPP) [2] (2.0 μg/ml) is 158 s; with normal plasma pool (NPP) [2] (2.4 μg/ml) it was 183 s; in the assay with normal plasma pool (NPP) [2] (2.8 μg/ml), 209 s; with normal plasma pool (NPP) [2] (3.0 μg/ml), 219 s. Also, the “Clotting time with PT” value with plasma samples [3] (0.4 μg) amounted to 11.8 s; in the assay with plasma samples [3] (2.5 μg) it was 14.6 s. For the same compound, the “Clotting time with aPTT” value was 60.6 s in the assay on plasma samples [4] (0.4 μg) and 108.8 s with plasma samples [4] (2.5 μg).
